Reference: article PMC8316002, “Inhibition of Escherichia coli Lipoprotein Diacylglyceryl Transferase Is Insensitive to Resistance Caused by Deletion of Braun’s Lipoprotein” (Journal of Bacteriology, 2021)
Converted amounts (≈) assume the structure as drawn. Where two headings read alike, the source gives them in different places. Where a SMILES comes first, the peptide text is derived from it. Bridges are numbered along the chain shown (N, C = ends). [ ]: non-standard residue; d: D form. Bip = N[C@@H](Cc1ccc(-c2ccccc2)cc1)C(=O)O; NMeF = CN[C@@H](Cc1ccccc1)C(=O)O

What was measured:
[1] = system: A. baumannii 19606 + EDTA; assay: microbe, parasite or virus in culture; format: cell-based; conditions: average of two independent experiments in duplicates
Procedure: (§1) Unless stated otherwise, E. coli cells were grown in Luria-Bertani (LB) medium (0.5% yeast extract, 1% tryptone, 0.5% NaCl) at 37°C. Where indicated, kanamycin (Kan) was added to culture media at a 50-μg/ml final concentration. MIC assays were performed based on Clinical and Laboratory Standards Institute (CLSI) guidelines. For in vitro growth curves, overnight cultures of WT CFT073, CFT073 Δlgt, and CFT073 Δlgt complemented with lgt from E. coli (lgt^Ec) or P. aeruginosa (lgt^Pa) were grown to mid-exponential phase (optical density at 600 nm [OD600] of 0.6) and then diluted to an OD600 of 0.1 to initiate growth curves. At various times, culture aliquots were diluted and plated in dilutions on LB+Kan agar, and CFU were enumerated in duplicates. Growth of MG1655 inducible deletion strains was measured by culturing in the presence of 2-fold dilutions of arabinose (starting arabinose concentrations for CFT073 and MG1655 inducible deletion strains were 4% and 0.8%, respectively). While […] was sufficient for WT growth of MG1655 Δlgt, 4% arabinose was used for CFT073 Δlgt based on comparing its growth to that of WT CFT073 as measured by CFU. OD600 growth measurements were performed using an EnVision 2101 multilabel reader plate reader (PerkinElmer) linked with Echo liquid handler (Labcyte). For time-kill experiments, bacteria were harvested in mid-exponential phase and treated with 12.5 μM G2824, 3.2 μM globomycin, and 1.6 μM vancomycin. CFU were enumerated at various times posttreatment. Bacterial culture medium containing 2% arabinose was used to induce lpp or lppΔK expression from pBad24 plasmids. Bacterial viability at different time points during the treatment was measured by enumerating CFU. Serum killing assays were carried out as previously described ([17]).

[2] = system: A. baumannii 19606; assay: microbe, parasite or virus in culture; format: cell-based; conditions: average of two independent experiments in duplicates
Procedure: as §1

[3] = system: P. aeruginosa PA14; assay: microbe, parasite or virus in culture; format: cell-based; conditions: average of two independent experiments in duplicates
Procedure: as §1

[4] = system: S. aureus USA300; assay: microbe, parasite or virus in culture; format: cell-based
Procedure: as §1

[5] = system: PA14 imp4213; assay: microbe, parasite or virus in culture; format: cell-based, P. aeruginosa; conditions: average of two independent experiments in duplicates
Procedure: Bacterial strains and plasmids used in this study are listed in Table S1 in the supplemental material. E. coli strain CFT073 (ATCC 700928) ([62]) and MG1655 (ATCC 700926) were purchased from ATCC. Gene disruption in CFT073 was performed as previously described ([17], [63]). CFT073 Δlgt and MG1655 ΔlspA were generated using λ Red recombination ([17], [63]). Plasmids pKD46 for the λ Red recombinase ([17], [63]), pKD4 or pSim18 for the integration construction ([17], [63]), and pCP20 ([64]) for the FLP recombinase were used in this study. The 3′ primers (Table S2) used to generate the integration construct from pKD4 contain a juxtaposed ribosome binding site downstream of the kanamycin (Kan) cassette to allow for the creation of nonpolar gene deletions within operons ([63]), which is critical when generating the lgt inducible deletion strain given that the ribosomal binding site of the thyA gene downstream of lgt is within the lgt coding region. The inducible deletion strains (MG1655 Δlgt and MG1655 ΔlolCDE) in either the WT and/or Δlpp backgrounds were generated using similar methods as previously described ([17], [65]). To delete lpp in the lgt, lspA, and lolCDE inducible deletion strains, the Kan cassette was removed by transforming the FLP recombinase-expressing pCP20 plasmid followed by deletion of the lpp gene using λ Red recombinase as discussed above. Similar protocols were used to introduce the imp4213 mutant allele. The PA14 imp4213 strain was generated based on published protocols ([66][–][68]). Briefly, the lptD imp4213 mutant allele was generated by PCR amplifying PA14 genomic DNA using primer pairs PA14imp4213_up-F/PA14imp4213_up-R (upstream region) and PA14imp4213_dn-F/PA14imp4213_dn-R (downstream region) to create lptD missing amino acids 425 to 447. PCR products were combined with the PCR-amplified vector pEX18gm with primers pLMG18_GA-F/pLMG18_GA-R and assembled using Gibson assembly (NEB). The resultant suicide vector pEX18gm was confirmed by sequence analysis (ELIM Biopharm). […]
Unless stated otherwise, E. coli cells were grown in Luria-Bertani (LB) medium (0.5% yeast extract, 1% tryptone, 0.5% NaCl) at 37°C. […] Growth of MG1655 inducible deletion strains was measured by culturing in the presence of 2-fold dilutions of arabinose (starting arabinose concentrations for CFT073 and MG1655 inducible deletion strains were 4% and 0.8%, respectively). While 2% arabinose was sufficient for WT growth of MG1655 Δlgt, 4% arabinose was used for CFT073 Δlgt based on comparing its growth to that of WT CFT073 as measured by CFU. OD600 growth measurements were performed using an EnVision 2101 multilabel reader plate reader (PerkinElmer) linked with Echo liquid handler (Labcyte). […]

[6] = system: PA14 + EDTA; assay: microbe, parasite or virus in culture; format: cell-based, P. aeruginosa; conditions: average of two independent experiments in duplicates
Procedure: as §1

[7] = in vitro; format: cell-based; conditions: human, representative of three independent replicates, read-out: EC50, mammalian cytotoxicity
Source text: TABLE 2 Growth inhibition of a panel of bacterial strains and eukaryotic cells by G9066, G2824, globomycin, and vancomycin | column: MIC or EC50 (μM)^a / G9066; MIC or EC50 (μM)^a / G2824; MIC or EC50 (μM)^a / Globomycin; MIC or EC50 (μM)^a / Vancomycin

[8] = S. aureus USA300, average of two independent experiments in duplicates

| SMILES | MIC ([1]; Acinetobacter baumannii) [µM] | MIC ([2]; Acinetobacter baumannii) [µM] | MIC ([3]; Pseudomonas aeruginosa) [µM] | MIC ([4]; Staphylococcus aureus, USA300) [µM] | MIC ([5]; Pseudomonas aeruginosa) [µM] | MIC ([6]; Pseudomonas aeruginosa) [µM] | EC50 ([7]; 293T) [µM] | EC50 ([7]; Hela) [µM] | EC50 ([7]; HepG2) [µM] | MIC [1] [µM] | MIC [2] [µM] | MIC [3] [µM] | MIC [4, 8] [µM] | MIC [5] [µM] | MIC [6] [µM] |
| --- | --- | --- | --- | --- | --- | --- | --- | --- | --- | --- | --- | --- | --- | --- | --- |
| CN[C@H](CC(C)C)C(=O)N[C@H]1C(=O)N[C@@H](CC(N)=O)C(=O)N[C@H]2C(=O)N[C@H]3C(=O)N[C@H](C(=O)N[C@H](C(=O)O)c4cc(O)cc(O)c4-c4cc3ccc4O)[C@H](O)c3ccc(c(Cl)c3)Oc3cc2cc(c3O[C@@H]2O[C@H](CO)[C@@H](O)[C@H](O)[C@H]2O[C@H]2C[C@](C)(N)[C@H](O)[C@H](C)O2)Oc2ccc(cc2Cl)[C@H]1O [Vancomycin] | 0.2 (≈ 0.29 µg/mL) | > 100 | > 100 | 0.4 (≈ 0.58 µg/mL) | 12.5 | 6.3 (≈ 9.13 µg/mL) | > 100 | > 100 | > 100 | – | – | – | – | – | – |
| CCCCCC[C@H]1OC(=O)CNC(=O)[C@H]([C@H](C)O)NC(=O)[C@H](CO)NC(=O)[C@H]([C@H](C)CC)NC(=O)[C@H](CC(C)C)N(C)C(=O)[C@@H]1C [Globomycin] | – | – | – | – | – | – | > 100 | > 100 | > 100 | 0.6 (≈ 0.394 µg/mL) | 25 (≈ 16.4 µg/mL) | >100 | >100 | 50 | 50 (≈ 32.8 µg/mL) |
| CN1C(=O)[C@H](Cc2ccc(-c3ccccc3)cc2)NC(=O)CNC(=O)[C@H](CC(=O)O)NC(=O)[C@@H](Cc2ccccc2)NC(=O)CSC[C@@H](C(=O)NCC(=O)N[C@@H](CCCCN)C(=O)N[C@@H](CCCCN)C(N)=O)NC(=O)[C@H](CCCNC(=N)N)NC(=O)[C@H](CO)NC(=O)[C@H](Cc2ccc(-c3ccccc3)cc2)NC(=O)[C@@H]1Cc1ccccc1 [G2824] ({CH2CO}-[dF]DG[Bip][NMeF][Bip]SRCGKK-NH2; thioether N-9) | – | – | – | – | – | – | > 100 | > 100 | > 100 | 6.3 (≈ 10.4 µg/mL) | 37.5 (≈ 61.6 µg/mL) | >100 | >100 | 6.3 | 6.3 (≈ 10.4 µg/mL) |
| CN1C(=O)[C@H](Cc2ccc(-c3ccccc3)cc2)NC(=O)CNC(=O)[C@H](CCCNC(=N)N)NC(=O)[C@@H](Cc2ccccc2)NC(=O)CSC[C@@H](C(=O)NCC(N)=O)NC(=O)[C@H](CCCNC(=N)N)NC(=O)[C@H](CO)NC(=O)[C@H](Cc2ccc(-c3ccccc3)cc2)NC(=O)[C@@H]1Cc1ccccc1 [G9066] ({CH2CO}-[dF]RG[Bip][NMeF][Bip]SRCG-NH2; thioether N-9) | – | – | – | – | – | – | > 100 | > 100 | > 100 | 3.1 (≈ 4.43 µg/mL) | 37.5 (≈ 53.6 µg/mL) | >100 | 6.3 (≈ 9 µg/mL) | 6.3 | 6.3 (≈ 9 µg/mL) |
